Source: patent US12396942B2, “Seed extract of Annona cherimola” (CLR-Chemisches Laboratorium Dr. Kurt Richter GmbH, priority 2019, dated 2025)

Assays:
[1] = system: IL-1β; assay: Capsaicine-induced IL-1β release in co-culture of keratinocytes and human sensory neurons; type: cell-based; conditions: FIG. 3
Protocol: (§1) To examine whether an F230 extract prepared as described in Example 1 is able to inhibit IL-1β and IL-8 expression, a co-culture system of keratinocytes and human sensory neurons was used. Human sensory neurons were derived from human induced pluripotent stem cells (hiPS cells). hiPS cells were obtained by transfecting human fibroblasts which were reprogrammed into […]. hiPS cells were plated in 6 wells plates coated by a thin layer of Matrigel® (Corning GmbH, Kaiserslautern, Germany) at a density of 250,000 cells in a medium composed by DMEM-F12 (Pan-Biotech, Aidenbach, Germany) supplemented with 10% Knockout Serum Replacement (Life technologies, Carlsbad, USA), 0.1 μM retinoic acid (Sigma Aldrich, Taufkirchen, Germany), 1% P/S (Pan-Biotech) and a cocktail of inhibitors. The culture was maintained for 6 days at 37° C. and 5% of CO2.
(§2) After 6 days of differentiation, hiPS cells were plated at a density of 20,000 cells in the differentiation medium using 96-well plates that had been coated with a thin layer of Matrigel®. […] Samples were evaluated by cytometry flux (BD Bioscience) and compared to non-treated controls.

[2] = system: IL-8; assay: Capsaicine-induced IL-8 release in co-culture of keratinocytes and human sensory neurons; type: cell-based; conditions: FIG. 4
Protocol: as §1, §2

[3] = co-culture, capsaicine as stimulus, compared to non-treated controls
[4] = co-culture of keratinocytes and human sensory neurons, 1 hour capsaicin stimulation, supernatant

COc1cc(CNC(=O)CCCC/C=C/C(C)C)ccc1O [capsaicine]
IL-1β expression on incubation with capsaicine alone [1, 3]: strongly induced IL-1β expression
IL-8 expression on incubation with capsaicine alone [2, 3]: strongly induced IL-8 expression

Oc1cc2c(cc1O)CN(C(=S)NCCc1ccc(Cl)cc1)CCC2 [capsazepine]
inhibition of capsaicine-induced IL-1β release [1, 4]: completely abrogates IL-1β release
inhibition of capsaicine-induced IL-8 release [2, 4]: significantly reduced IL-8 release
